We go through one compound from patent US5455242A, “Carboxyalkyl tricyclic derivatives useful as inhibitors of enkephalinase and ace” (Merrell Dow Pharmaceuticals Inc., priority 1993, dated 1995).

One may read the Ki as the dissociation constant of the complex between target and ligand, obtained from inhibition or displacement. Lower therefore signals a stronger hold on the target.

In this test the target is T1, Enkephalinase (Rattus norvegicus, UniProt P07861).
T1 construct: Enkephalinase is partially purified from rat kidney; from tissue; host or cells: rat kidney (microvilli fraction)
T1 sequence (P07861 1-750): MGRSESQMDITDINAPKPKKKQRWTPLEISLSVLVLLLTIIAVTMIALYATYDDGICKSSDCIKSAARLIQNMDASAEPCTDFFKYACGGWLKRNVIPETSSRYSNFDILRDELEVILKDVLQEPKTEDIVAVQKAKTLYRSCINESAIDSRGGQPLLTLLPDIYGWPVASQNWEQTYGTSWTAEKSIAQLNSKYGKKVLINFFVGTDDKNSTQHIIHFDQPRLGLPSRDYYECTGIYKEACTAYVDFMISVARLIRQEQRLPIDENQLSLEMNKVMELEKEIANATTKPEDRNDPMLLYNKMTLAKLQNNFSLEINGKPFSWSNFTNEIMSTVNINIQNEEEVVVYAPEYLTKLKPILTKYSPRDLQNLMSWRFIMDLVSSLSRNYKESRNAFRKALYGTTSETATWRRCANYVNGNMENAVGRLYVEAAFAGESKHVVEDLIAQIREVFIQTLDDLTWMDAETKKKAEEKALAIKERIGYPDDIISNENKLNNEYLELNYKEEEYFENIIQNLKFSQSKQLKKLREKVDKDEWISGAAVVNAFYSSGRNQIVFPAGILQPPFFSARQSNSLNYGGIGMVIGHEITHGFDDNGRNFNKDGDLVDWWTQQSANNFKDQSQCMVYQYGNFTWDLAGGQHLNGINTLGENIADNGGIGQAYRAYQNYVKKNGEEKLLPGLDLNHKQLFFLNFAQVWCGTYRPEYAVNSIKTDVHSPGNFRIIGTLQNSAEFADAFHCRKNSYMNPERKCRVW
The test is described as follows: Enkephalinase inhibition (fluorometric assay, enzyme partially purified from rat kidney). It counts as biochemical. The note with it: 50 mM HEPES pH 7.4, 25° C., 12 μM dansyl-D-AlaGly(p-nitro)PheGly. The text has this:
Enkephalinase is partially purified from rat kidney. The enzyme is extracted from the microvilli fraction by using Triton X-100 according to the method of Malfroy and Schwartz [J. Biol. Chem. 259, 14365-14370 (1984)]or by using a proteolytic treatment according to the method of Almenoff and Orlowski [Biochem. 22, 590-599 (1983)]. The enzyme is further purified by anion exchange chromatography (Mono Q™ column, Pharmacia) using a Pharmacia FPLC system. The enzyme activity may be measured by the fluorometric methods of Florentin et al. [Anal. Biochem. 141, 62-69 (1984)]or of Almenoff and Orlowski [J. Neurochemistry 42, 151-157 (1984)]. The enzyme is assayed in 50 mM HEPES buffer (pH 7.4) in a 3.0 mL reaction volume containing 12 μM of the substrate dansyl-D-AlaGly(p-nitro)PheGly(Km =40 μM) at 25° C. The substrate (and inhibitor) is added from a concentrated stock solution in DMSO (up to 0.1 mL DMSO final volume). The enzyme in a small volume (approximately 0.1 μg of FPLC purified protein) is added to initiate the reaction and the rate of fluorecense increase is recorded continuously using a fluorometer (excitation at 339 nm, emission at 562 nm).

`O=C(O)CC(Cc1ccccc1)C(=O)N[C@H]1Cc2ccccc2[C@H]2CCC[C@@H](C(=O)O)N2C1=O` (stereo partly drawn) [101,287, [4S-[4α, 7α(R*), 12bβ]]-7-[(1-Oxo-2-carboxymethyl-3-phenylpropyl)amino]-1,2,3,4,6,7,8,12b-octahydro-6-oxopyrido[2,1-a][2]benzazepine-4-carboxylic acid] registered a Ki of 5 nM.
